Reference: US20220354957A1, “PEPTIDES TARGETING MACROPHAGES, AND CONJUGATES, COMPOSITIONS, AND USES THEREOF” (Twinpig Biolab, Inc., priority 2021, published 2022)
pIC50: −log10 of the molar value.

How the values were obtained:
[1] = Cell viability test (CCK-8) of dKLA-conjugated alanine-substituted peptides; format: cell-based, human; details: FIG. 25; read-out: cytotoxicity IC50 in M2 macrophages
Experimental: (§1) THP-1 monocytes were differentiated into macrophages (M0) by 24 h incubation with 100 nM phorbol 12-myristate 13-acetate (PMA, Sigma) followed by 24 h incubation in RPMI medium (Invitrogen). Macrophages were polarized in M1 macrophages (M1) by incubation with 20 ng/ml of IFN-γ (Prospec) and 100ng/m1 of LPS (Sigma). Macrophage M2 polarization(M2) was obtained by incubation with 20 ng/ml of interleukin (IL) 4 (Prospec) and 20 ng/ml of interleukin 13 (Pro spec).
(§2) […] Cell viability was analyzed using the CCK-8 assay: CCK-8 reagent (Enzo Life Sciences) was added to each well; incubation was continued for 2 hours, and absorbance was measured at 450 nm with a microplate reader (Molecular Devices).

[2] = system: M2 macrophages; assay: as above; format: cell-based, human; details: 1.5 μM, 1 hour then 24 hours, CCK-8, compared to control M2 macrophage
Experimental: as §1, §2

[3] = system: lung fibrosis induced by bleomycin; assay: Mouse model of lung fibrosis (bleomycin); format: in vivo
Experimental: For lung fibrosis mouse model, C57BL/6 (B6) wild-type mice were lightly anesthetized with 2.5% isoflurane and administered bleomycin (BLM, 2 mg/kg) via oropharyngeal aspiration (OA) using a micropipette. After 14 days, the mice were intraperitoneally injected with MpepK (200 nmol/kg) every other day. The animal studies were approved by the Institutional Animal Care and Use Committee of Kyung Hee University (KHUASP(SE)-20-530 for melanoma and 20-382 for prostate cancer). All animals were maintained in a specific pathogen-free environment on a 12-h light/dark cycle with free access to food and water. Nesting sheets were used for enrichment. After the experiments were terminated, all mice were euthanized using isoflurane and cervical dislocation.
Total RNA was extracted using Easy-Blue reagent. Concentrations of RNA were determined and quantified by measuring absorbance at 260 and 280 nm with a spectrophotometer. […] PCR conditions were forty-five cycles at 95° C. for 5 min, followed by 95° C. for 10 sec, 60° C. for 10 sec and 72° C. for 10 sec. mRNA expression were quantified in triplicate. Data were measured with CFX Software (Bio-Rad). […]
The lung tissues of lung fibrosis mouse model were fixed in 10% neutral buffered formalin and embedded in paraffin. […] The sections were examined and evaluated randomly using standard light microscopy (Olympus).

[4] = system: M2-like TAMs; assay: FACS of tumor macrophages and CD8+ T cells in mouse model of melanoma; format: in vivo; details: vs PBS group
Description: BALB/c and C57BL/6 (B6) wild-type mice were purchased from DBL. For the subcutaneous tumor model of melanoma and prostate cancer, CT26 (3×10^5 cells/mouse), B16F10 (1×10^6 cells/mouse) and TRAMP-C2 cells (1×10^6 cells/mouse) were mixed with Matrigel matrix (Corning) and inoculated subcutaneously into the right flank of the mice, and 4T1 (1×10^5 cells/mouse) cells mixed with Matrigel matrix and inoculated into a 4th mammary fat pad of the mice. TAMpepK, and MpepK peptides (200 nmol/kg) were injected intraperitoneally every 3 days, beginning at day 7 after tumor inoculation, and tumor volume was measured by electronic caliper. All tumor tissues were harvested after the end of the study and tumor weight was measured by an electronic balance.
THP-1 cells were differentiated into macrophages by a 24 h incubation with 100 nM PMA and polarized in M2 macrophages by incubation with 20 ng/ml of IL-4 and 20 ng/ml of IL-13 for 72 h. Polarized cells were treated with 50 nM TAMpep and fragments of TAMpep or Mpep and alanine library of Mpep conjugated with FITC for 1 h. To test change of macrophage population in melanoma tissue, the single cells were isolated from tumor tissue through a 40 μm nylon mesh strainer after dissociation by DNase I (1 U/mL) and collagenase D (1 mg/ml). Cells were detected on BD FACSCalibur and BD FACSCantoII instruments and analyzed by FlowJo software.

## CC[C@H](C)[C@H](NC(=O)[C@H](CC(C)C)NC(=O)[C@H](C)NC(=O)[C@@H]1CCCN1C(=O)[C@H](CC(C)C)NC(=O)CNC(=O)[C@@H](NC(=O)[C@@H](NC(=O)[C@H](CC(C)C)NC(=O)[C@@H](NC(C)=O)C(C)C)[C@@H](C)O)[C@@H](C)O)C(=O)N[C@@H](CO)C(=O)N[C@@H](Cc1c[nH]c2ccccc12)C(=O)N[C@H](C(=O)N[C@@H](CCCCN)C(=O)N[C@@H](CCCNC(=N)N)C(=O)N[C@@H](CCCCN)C(=O)N[C@@H](CCCNC(=N)N)C(=O)N[C@@H](CCC(N)=O)C(=O)N[C@@H](CCC(N)=O)C(=O)NCC(=O)NCC(=O)NCC(=O)NCC(=O)N[C@@H](CO)C(=O)N[C@H](CCCCN)C(=O)N[C@H](CC(C)C)C(=O)N[C@H](C)C(=O)N[C@H](CCCCN)C(=O)N[C@H](CC(C)C)C(=O)N[C@H](C)C(=O)N[C@H](CCCCN)C(=O)N[C@H](CCCCN)C(=O)N[C@H](CC(C)C)C(=O)N[C@H](C)C(=O)N[C@H](CCCCN)C(=O)N[C@H](CC(C)C)C(=O)N[C@H](C)C(=O)N[C@H](CCCCN)C(=O)O)[C@@H](C)CC [MpepK]
[1]
  pIC50: 5.95
[2]
  cytotoxic effect in M2 macrophages: significant cytotoxic effects
[3]; 200 nmol/kg i.p. every other day, H&E
  lung fibrosis induced by bleomycin: decreased
[3]; compared to PBS
  gene expression related to fibrosis such as fos12, collagen type 1 and fibronectin 1: significantly reduced
[4]; melanoma model
  exhaustion markers, such as PD-1 and LAGS, in CD8+ T cells: significantly reduced
[4]; melanoma tumor tissue
  M1-like TAMs (F4/80+ and CD86+ cells): no change
  M1/M2 ratio: significantly increased
  M2-like TAMs (F4.80+ and CD206+ cells): reduced
